Test results reported in publication PMC5218480 (PLoS ONE, 2017).

Test system: MV-4-11 cells
Assay: Gene expression microarray analysis (Affymetrix PrimeView) and GSEA
Assay type: cell-based, human
Design: RFU PODN (11730768_x_at) / Fold change /veh PODN (11730768_x_at) / RFU LINC00158 (11744669_a_at) / Fold change /veh LINC00158 (11744669_a_at) / RFU DUSP10 (11751237_a_at) / Fold change /veh DUSP10 (11751237_a_at) / RFU ID3 (11757404_x_at) / Fold change /veh ID3 (11757404_x_at) / RFU PLEKHG5 (11737974_s_at) / Fold change /veh PLEKHG5 (11737974_s_at) / RFU LRRC4B (11730491_at) / Fold change /veh LRRC4B (11730491_at) / RFU GIMAP4 (11747438_a_at) / Fold change /veh GIMAP4 (11747438_a_at) / RFU KRT8 (11758183_x_at) / Fold change /veh KRT8 (11758183_x_at) / RFU CNN1 (11734310_a_at) / Fold change /veh CNN1 (11734310_a_at) / RFU VPS37D (11726825_at) / Fold change /veh VPS37D (11726825_at) / RFU C10orf10 (11716522_x_at) / Fold change /veh C10orf10 (11716522_x_at) / RFU KIR2DL2 /// KIR2DL4 /// KIR2DL5A /// KIR2DL5B /// KIR2DS1 /// KIR2DS2 /// KIR2DS3 /// KIR2DS4 /// KIR3DL3 /// KIR3DL3 /// KIR3DS1 (11738374_at) / Fold change /veh KIR2DL2 /// KIR2DL4 /// KIR2DL5A /// KIR2DL5B /// KIR2DS1 /// KIR2DS2 /// KIR2DS3 /// KIR2DS4 /// KIR3DL3 /// KIR3DL3 /// KIR3DS1 (11738374_at) / RFU C1QL1 (11718748_at) / Fold change /veh C1QL1 (11718748_at) / RFU TMPRSS4 (11747572_a_at) / Fold change /veh TMPRSS4 (11747572_a_at) / RFU HAMP (11756126_x_at) / Fold change /veh HAMP (11756126_x_at) / RFU RNFT2 (11725882_a_at) / Fold change /veh RNFT2 (11725882_a_at) / RFU NR4A2 (11747474_a_at) / Fold change /veh NR4A2 (11747474_a_at) / RFU ABCC12 (11746883_a_at) / Fold change /veh ABCC12 (11746883_a_at) / RFU TMEM136 (11760407_x_at) / Fold change /veh TMEM136 (11760407_x_at) / RFU CLDN22 /// WWC2 (11732394_at) / Fold change /veh CLDN22 /// WWC2 (11732394_at) / RFU HLA-DPB1 (11760878_x_at) / Fold change /veh HLA-DPB1 (11760878_x_at) / RFU SPINT1 (11716480_a_at) / Fold change /veh SPINT1 (11716480_a_at) / RFU GAP43 (11754022_s_at) / Fold change /veh GAP43 (11754022_s_at) / RFU A4GNT (11735810_at) / Fold change /veh A4GNT (11735810_at) / RFU PRB3 (11715151_x_at) / Fold change /veh PRB3 (11715151_x_at) / RFU TUBB4B (11761932_at) / Fold change /veh TUBB4B (11761932_at) / RFU CAPN14 (11732068_a_at) / Fold change /veh CAPN14 (11732068_a_at) / RFU TMCC2 (11721928_a_at) / Fold change /veh TMCC2 (11721928_a_at) / RFU IRGQ (11745062_a_at) / Fold change /veh IRGQ (11745062_a_at) / RFU FAM174B (11720279_a_at) / Fold change /veh FAM174B (11720279_a_at) / RFU TMPRSS4 (11748680_a_at) / Fold change /veh TMPRSS4 (11748680_a_at) / RFU FAM212B (11763350_a_at) / Fold change /veh FAM212B (11763350_a_at) / RFU PLEKHG5 (11743358_a_at) / Fold change /veh PLEKHG5 (11743358_a_at) / RFU ZSCAN30 (11745921_a_at) / Fold change /veh ZSCAN30 (11745921_a_at) / RFU CMKLR1 (11741424_a_at) / Fold change /veh CMKLR1 (11741424_a_at) / RFU LOC101060620 /// MAPK8IP1 (11723275_at) / Fold change /veh LOC101060620 /// MAPK8IP1 (11723275_at) / RFU SPTSSB (11747773_x_at) / Fold change /veh SPTSSB (11747773_x_at) / RFU PRSS12 (11739890_at) / Fold change /veh PRSS12 (11739890_at) / RFU BIN1 (11741810_x_at) / Fold change /veh BIN1 (11741810_x_at) / RFU WNT11 (11732464_a_at) / Fold change /veh WNT11 (11732464_a_at) / RFU C10orf10 (11716521_a_at) / Fold change /veh C10orf10 (11716521_a_at) / RFU C5orf56 (11738089_at) / Fold change /veh C5orf56 (11738089_at) / RFU CYB561 (11721691_x_at) / Fold change /veh CYB561 (11721691_x_at) / RFU ANKRD19P (11752326_a_at) / Fold change /veh ANKRD19P (11752326_a_at) / RFU OR2T12 /// OR2T33 /// OR2T8 (11738714_s_at) / Fold change /veh OR2T12 /// OR2T33 /// OR2T8 (11738714_s_at) / RFU VCAN (11748164_a_at) / Fold change /veh VCAN (11748164_a_at) / RFU JSRP1 (11732532_at) / Fold change /veh JSRP1 (11732532_at) / RFU KRTAP10-11 (11738290_x_at) / Fold change /veh KRTAP10-11 (11738290_x_at) / RFU MYO3A (11730013_a_at) / Fold change /veh MYO3A (11730013_a_at) / RFU EBF3 (11725865_a_at) / Fold change /veh EBF3 (11725865_a_at) / RFU CAMK2N1 (11719241_x_at) / Fold change /veh CAMK2N1 (11719241_x_at) / RFU C5orf56 (11738088_a_at) / Fold change /veh C5orf56 (11738088_a_at) / RFU OLFML3 (11715873_a_at) / Fold change /veh OLFML3 (11715873_a_at) / RFU LOC100653217 /// NTM (11731650_a_at) / Fold change /veh LOC100653217 /// NTM (11731650_a_at) / RFU MAPK11 (11762145_a_at) / Fold change /veh MAPK11 (11762145_a_at) / RFU FIZ1 (11724087_x_at) / Fold change /veh FIZ1 (11724087_x_at) / RFU OASL (11726364_x_at) / Fold change /veh OASL (11726364_x_at) / RFU SOX15 (11748057_x_at) / Fold change /veh SOX15 (11748057_x_at) / RFU CD79A (11719716_a_at) / Fold change /veh CD79A (11719716_a_at) / RFU HIST1H1D (11736915_at) / Fold change /veh HIST1H1D (11736915_at) / RFU CASKIN2 (11723855_a_at) / Fold change /veh CASKIN2 (11723855_a_at) / RFU LOC730098 (11760151_x_at) / Fold change /veh LOC730098 (11760151_x_at) / RFU OR4N2 (11742367_at) / Fold change /veh OR4N2 (11742367_at) / RFU PRRT2 (11749266_a_at) / Fold change /veh PRRT2 (11749266_a_at) / RFU SNX32 (11753110_a_at) / Fold change /veh SNX32 (11753110_a_at) / RFU CDHR5 (11726645_a_at) / Fold change /veh CDHR5 (11726645_a_at) / RFU RCAN1 (11760418_a_at) / Fold change /veh RCAN1 (11760418_a_at) / RFU FAM167A (11723789_a_at) / Fold change /veh FAM167A (11723789_a_at) / RFU FAM26E (11764081_at) / Fold change /veh FAM26E (11764081_at) / RFU ISYNA1 (11749810_s_at) / Fold change /veh ISYNA1 (11749810_s_at) / RFU ACY1 (11761880_at) / Fold change /veh ACY1 (11761880_at) / RFU 11764098_at / Fold change /veh 11764098_at / RFU SAMD14 (11745864_x_at) / Fold change /veh SAMD14 (11745864_x_at) / RFU NPB (11741838_a_at) / Fold change /veh NPB (11741838_a_at) / RFU TMPRSS6 (11731388_a_at) / Fold change /veh TMPRSS6 (11731388_a_at) / RFU KRTAP10-2 (11738614_at) / Fold change /veh KRTAP10-2 (11738614_at) / RFU ARHGAP8 /// PRR5-ARHGAP8 (11727945_x_at) / Fold change /veh ARHGAP8 /// PRR5-ARHGAP8 (11727945_x_at) / RFU KRTAP5-7 /// NADSYN1 (11734609_at) / Fold change /veh KRTAP5-7 /// NADSYN1 (11734609_at) / RFU RASL12 (11751679_a_at) / Fold change /veh RASL12 (11751679_a_at) / RFU CDKN2B (11736163_a_at) / Fold change /veh CDKN2B (11736163_a_at) / RFU PRF1 (11729649_at) / Fold change /veh PRF1 (11729649_at) / RFU, ZNF638 /// ZNF638-IT1 / Fold change vs veh, ZNF638 /// ZNF638-IT1 / RFU, PANK3 / Fold change vs veh, PANK3 / RFU, SH3YL1 / Fold change vs veh, SH3YL1 / RFU, ZEB2 / Fold change vs veh, ZEB2 / RFU, NRIP1 / Fold change vs veh, NRIP1 / RFU, PTTG1IP / Fold change vs veh, PTTG1IP / RFU, CAPN2 / Fold change vs veh, CAPN2 / RFU, MED14 / Fold change vs veh, MED14 / RFU, SNORA58 / Fold change vs veh, SNORA58 / RFU, C1orf63 / Fold change vs veh, C1orf63 / RFU, LRRFIP1 / Fold change vs veh, LRRFIP1 / RFU, NDUFAF7 / Fold change vs veh, NDUFAF7 / RFU, SLC12A2 / Fold change vs veh, SLC12A2 / RFU, IBTK / Fold change vs veh, IBTK / RFU, ESF1 / Fold change vs veh, ESF1 / Fold change vs veh, TMEM50B / RFU, TAOK1 / Fold change vs veh, TAOK1 / RFU, ACBD3 / Fold change vs veh, ACBD3 / RFU, TMA16 / Fold change vs veh, TMA16 / RFU, RWDD3 / Fold change vs veh, RWDD3 / RFU, BCAT1 / Fold change vs veh, BCAT1 / RFU, EDEM3 / Fold change vs veh, EDEM3 / RFU, TMEM33 / Fold change vs veh, TMEM33 / RFU, WDR75 / Fold change vs veh, WDR75 / RFU, AHCTF1 / Fold change vs veh, AHCTF1 / RFU, TFRC / Fold change vs veh, TFRC / RFU, ZDHHC17 / Fold change vs veh, ZDHHC17 / RFU, NOM1 / Fold change vs veh, NOM1 / RFU, ARL8B / Fold change vs veh, ARL8B / RFU, ZBTB11 / Fold change vs veh, ZBTB11 / RFU, TAMM41 / Fold change vs veh, TAMM41 / RFU, KIAA1704 /// LOC100996395 / Fold change vs veh, KIAA1704 /// LOC100996395 / RFU, ING1 / Fold change vs veh, ING1 / RFU, TRMT61B / Fold change vs veh, TRMT61B / RFU, FUBP3 / Fold change vs veh, FUBP3 / RFU, TP53 / Fold change vs veh, TP53 / RFU, TNKS2 / Fold change vs veh, TNKS2 / RFU, ZFP14 / Fold change vs veh, ZFP14 / RFU, ACTR2 / Fold change vs veh, ACTR2 / RFU, PPP3R1 / Fold change vs veh, PPP3R1 / RFU, PIK3R1 / Fold change vs veh, PIK3R1 / RFU, HNRNPA1 / Fold change vs veh, HNRNPA1 / RFU, RNF170 / Fold change vs veh, RNF170 / RFU, ZNF28 / Fold change vs veh, ZNF28 / RFU, RNGTT / Fold change vs veh, RNGTT / RFU, OGT / Fold change vs veh, OGT / RFU, BRD1 / Fold change vs veh, BRD1 / RFU, MARS / Fold change vs veh, MARS / RFU, ZNF655 / Fold change vs veh, ZNF655 / RFU, FAHD1 / Fold change vs veh, FAHD1 / RFU, BDP1 / Fold change vs veh, BDP1 / RFU, LRRCC1 / Fold change vs veh, LRRCC1 / RFU, ARID1A / Fold change vs veh, ARID1A / RFU, ZNF146 / Fold change vs veh, ZNF146 / RFU, ZNF330 / Fold change vs veh, ZNF330 / RFU, GPN3 / Fold change vs veh, GPN3 / RFU, C9orf123 / Fold change vs veh, C9orf123 / RFU, N4BP2L2 / Fold change vs veh, N4BP2L2 / RFU, ARFIP1 / Fold change vs veh, ARFIP1 / RFU, FAM179B / Fold change vs veh, FAM179B / RFU, BCL10 / Fold change vs veh, BCL10 / RFU, UHRF1BP1L / Fold change vs veh, UHRF1BP1L / RFU, BET1 / Fold change vs veh, BET1 / RFU, CNOT2 / Fold change vs veh, CNOT2 / RFU, ZNF268 / Fold change vs veh, ZNF268 / Fold change vs veh, ZNF507 / RFU, DGCR2 / Fold change vs veh, DGCR2 / RFU, WDSUB1 / Fold change vs veh, WDSUB1 / Fold change vs veh, HSP90B1 /// MIR3652 / RFU, ADSS / Fold change vs veh, ADSS / RFU, GK / Fold change vs veh, GK / RFU, ZNF148 / Fold change vs veh, ZNF148 / RFU, TAF9 / Fold change vs veh, TAF9 / RFU, SLC1A5 / Fold change vs veh, SLC1A5 / RFU, SLMO2 / Fold change vs veh, SLMO2 / RFU, ABCC4 / Fold change vs veh, ABCC4 / RFU, LOC101060439 /// RAP1B / Fold change vs veh, LOC101060439 /// RAP1B / RFU, RFX7 / Fold change vs veh, RFX7 / RFU, GTPBP10 / Fold change vs veh, GTPBP10 / RFU, CNEP1R1 / Fold change vs veh, CNEP1R1 / RFU, BIVM-ERCC5 /// ERCC5 / Fold change vs veh, BIVM-ERCC5 /// ERCC5 / RFU, ILF3 / Fold change vs veh, ILF3 / RFU 11762660_at / Fold change /veh 11762660_at / RFU VCAN (11757783_s_at) / Fold change /veh VCAN (11757783_s_at) / RFU DDX43 (11728927_at) / Fold change /veh DDX43 (11728927_at) / RFU KRT8 (11758188_x_at) / Fold change /veh KRT8 (11758188_x_at) / RFU NKD1 (11759106_at) / Fold change /veh NKD1 (11759106_at) / RFU SRD5A1 (11742802_a_at) / Fold change /veh SRD5A1 (11742802_a_at) / RFU TPSAB1 /// TPSB2 (11721975_s_at) / Fold change /veh TPSAB1 /// TPSB2 (11721975_s_at) / RFU GSTM3 (11746129_a_at) / Fold change /veh GSTM3 (11746129_a_at) / RFU IL23R (11737362_x_at) / Fold change /veh IL23R (11737362_x_at) / RFU TMEM51 (11727254_a_at) / Fold change /veh TMEM51 (11727254_a_at) / RFU PIWIL2 (11732686_x_at) / Fold change /veh PIWIL2 (11732686_x_at) / RFU ORM1 (11744905_x_at) / Fold change /veh ORM1 (11744905_x_at) / RFU CCDC152 (11743942_at) / Fold change /veh CCDC152 (11743942_at) / RFU ECM1 (11717891_a_at) / Fold change /veh ECM1 (11717891_a_at) / RFU IL23R (11748794_a_at) / Fold change /veh IL23R (11748794_a_at) / RFU TNFAIP8L3 (11732012_x_at) / Fold change /veh TNFAIP8L3 (11732012_x_at) / RFU MBOAT4 (11741988_at) / Fold change /veh MBOAT4 (11741988_at) / RFU 11764193_at / Fold change /veh 11764193_at / RFU TMEM53 (11763286_at) / Fold change /veh TMEM53 (11763286_at) / RFU MAGEB2 (11727129_at) / Fold change /veh MAGEB2 (11727129_at) / RFU TMEM200A (11744735_a_at) / Fold change /veh TMEM200A (11744735_a_at) / RFU CCDC152 (11751479_a_at) / Fold change /veh CCDC152 (11751479_a_at) / RFU FAM211A (11726209_a_at) / Fold change /veh FAM211A (11726209_a_at) / RFU RGS16 (11746705_a_at) / Fold change /veh RGS16 (11746705_a_at) / RFU VCAN (11755009_s_at) / Fold change /veh VCAN (11755009_s_at) / RFU RHOB (11743442_s_at) / Fold change /veh RHOB (11743442_s_at) / RFU RGS16 (11720943_a_at) / Fold change /veh RGS16 (11720943_a_at) / RFU RGS16 (11720944_at) / Fold change /veh RGS16 (11720944_at) / RFU, VPS4B / Fold change vs veh, VPS4B / RFU, CREB1 / Fold change vs veh, CREB1 / RFU, DNAJC13 / Fold change vs veh, DNAJC13 / RFU, GNAQ / Fold change vs veh, GNAQ / RFU, CDK5R1 / Fold change vs veh, CDK5R1 / RFU, ZRANB3 / Fold change vs veh, ZRANB3 / RFU, CUL4A / Fold change vs veh, CUL4A / RFU, CCNY / Fold change vs veh, CCNY / RFU, UFL1 / Fold change vs veh, UFL1 / RFU, COG3 / Fold change vs veh, COG3 / RFU, DIAPH2 / Fold change vs veh, DIAPH2 / RFU, SKA2 / Fold change vs veh, SKA2 / RFU, AFF3 / Fold change vs veh, AFF3 / RFU, LMF1 / Fold change vs veh, LMF1 / RFU, IPO11 / Fold change vs veh, IPO11 / RFU, DFFB / Fold change vs veh, DFFB / RFU, FOXP1 / Fold change vs veh, FOXP1 / RFU, CARD8 / Fold change vs veh, CARD8 / RFU, STRN3 / Fold change vs veh, STRN3 / RFU, ADK / Fold change vs veh, ADK / RFU, RASSF2 / Fold change vs veh, RASSF2 / RFU, WIPF1 / Fold change vs veh, WIPF1 / RFU, LARP1B / Fold change vs veh, LARP1B / RFU, RASA1 / Fold change vs veh, RASA1 / RFU, RB1 / Fold change vs veh, RB1 / RFU, PPFIA1 / Fold change vs veh, PPFIA1 / RFU, MAT2A / Fold change vs veh, MAT2A / RFU, CCT5 / Fold change vs veh, CCT5 / RFU, WDR92 / Fold change vs veh, WDR92 / RFU, CUX1 / Fold change vs veh, CUX1 / RFU, TTC7A / Fold change vs veh, TTC7A / RFU, TMEM135 / Fold change vs veh, TMEM135 / RFU, DEPTOR / Fold change vs veh, DEPTOR / RFU, CPM / Fold change vs veh, CPM / RFU, DNAJB6 / Fold change vs veh, DNAJB6 / RFU, CACNA2D3 / Fold change vs veh, CACNA2D3 / RFU, DTX4 / Fold change vs veh, DTX4 / RFU, TFCP2 / Fold change vs veh, TFCP2 / RFU, GMCL1 /// GMCL1P1 / Fold change vs veh, GMCL1 /// GMCL1P1 / RFU, AEBP2 / Fold change vs veh, AEBP2 / RFU, SNHG1 /// SNORD22 /// SNORD25 /// SNORD26 /// SNORD27 /// SNORD28 /// SNORD29 /// SNORD31 / Fold change vs veh, SNHG1 /// SNORD22 /// SNORD25 /// SNORD26 /// SNORD27 /// SNORD28 /// SNORD29 /// SNORD31 / Fold change (Aza/veh), C12orf56 (ProbeSet 11735607_a_at) / Fold change (ACY-1035/veh), C12orf56 (ProbeSet 11735607_a_at) / Fold change (Aza/veh), FGFR1OP (ProbeSet 11751329_s_at) / Fold change (ACY-1035/veh), FGFR1OP (ProbeSet 11751329_s_at) / Fold change (Aza/veh), VPS36 (ProbeSet 11739960_a_at) / Fold change (ACY-1035/veh), VPS36 (ProbeSet 11739960_a_at) / RFU SYPL1 (11715823_x_at) / Fold change /veh SYPL1 (11715823_x_at) / RFU IGFBP7 (11715501_s_at) / Fold change /veh IGFBP7 (11715501_s_at) / RFU REEP3 (11722064_at) / Fold change /veh REEP3 (11722064_at) / RFU IGLL1 (11728026_x_at) / Fold change /veh IGLL1 (11728026_x_at): dose or concentration left out as unconfirmed
Settings: ProbeSet 11763166_a_at; LIST B

## Nc1ncn([C@@H]2O[C@H](CO)[C@@H](O)[C@H]2O)c(=O)n1 [azacitidine]
  RFU, MARS: 35.99 RFU
